What all share (format): cell-based
The target of test [1] is T1, mouse SMO^WT (Mus musculus, UniProt P56726).
T1 construct: expressed in transfected cells
As to the kind of experiment: Mouse assay: Gli1 qPCR in MEF cells stably expressing mouse SMO WT. As to conditions: mSHh-treated, 24 hours; for IC50: Gli1 inhibition by qPCR, read-out: Mouse WT pIC50 (converted); for Mouse WT % Inh: percentage Gli1 inhibition. A digest of the protocol: (§1)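 MEFs stably expressing the SMO variant pre-treated with compound 1 h, then stimulated with mSHh and incubated 24 h at 37 °C. Gli1 mRNA quantified by one-step TaqMan qPCR with Gusb reference, four replicates per concentration; expressed as % Gli1 inhibition relative to mSHh-treated controls.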

In test [2] the target is T2, mouse SMO^D473H (Mus musculus, UniProt P56726, D477H).
T2 construct: expressed in transfected cells
In words: Mouse assay: Gli1 qPCR in MEF cells stably expressing mouse SMO D473H. As to conditions: mSHh-treated, 24 hours; for IC50: Gli1 inhibition by qPCR, read-out: Mouse D473H pIC50 (converted); for Mouse D473H % Inh: percentage Gli1 inhibition. The procedure, abridged:
as §1
(Quantitative PCR measures a nucleic acid by following its amplification.)

In test [3] the target is T3, mouse SMO^W535L (Mus musculus, UniProt P56726, W539L).
T3 construct: expressed in transfected cells
In words: Mouse assay: Gli1 qPCR in MEF cells stably expressing mouse SMO W535L. Particulars: mSHh-treated, 24 hours; for IC50: Gli1 inhibition by qPCR, read-out: Mouse W535L pIC50 (converted); for Mouse W535L % Inh: percentage Gli1 inhibition. The procedure, abridged:
as §1

In test [4] the target is T4, hSMO WT (Homo sapiens, UniProt Q99835).
T4 construct: expressed in transfected cells; host or cells: SMO knock-out mouse embryonic fibroblasts (MEF SMO-/-), BacMam transduction
In words: Human assay: Gli1 qPCR in MEF SMO-/- cells BacMam-transduced with hSMO WT. Particulars: mSHh-treated, 24 hours; for IC50: Gli1 inhibition by qPCR, read-out: Human WT pIC50 (converted); for Human WT % Inh: percentage Gli1 inhibition. Here is the method:
(§2) Cell culture. All materials were purchased from Sigma-Aldrich, unless otherwise stated. SMO knock-out mouse embryonic fibroblasts (MEF^SMO−/−) were maintained in Dulbecco's modified Eagle's medium (DMEM)/high-glucose medium supplemented with 10% foetal bovine serum (FBS, Invitrogen), 50 U/mL penicillin and 5 mg/mL streptomycin (supplied as a mixture), 0.1 mMMEM Non-Essential Amino Acids (supplied as 100× solution, ThermoFisher) and 1 mM sodium pyruvate at 37° C. in a humidified 95% air/5% CO2 atmosphere.
(§3) BacMam transduction and compound treatment. MEF^SMO−/− cells were transduced with BacMam virus (MOI 1:10 in the presence of 4.2 mM valproic acid) containing either the hSMO WT or desired receptor variant sequence. Transduced cells were seeded at 6000 cells per well in a Poly-D-Lysine coated 384-well plate (Greiner) before the spent culture medium was removed on the following day and replaced with assay medium (OptiMEM (Gibco) supplemented with 50 U/mL penicillin and 5 mg/mL streptomycin (supplied as a mixture), 0.1 mMMEM Non-Essential Amino Acids (supplied as 100× solution, ThermoFisher), 1 mM sodium pyruvate and 10 mM HEPES) containing test compounds at 2.5× final assay concentrations. After 1 hour incubation, cells were treated with assay medium containing mSHh prepared at 2.5× of final assay concentrations specified in the text and incubated for a further 24 hours at 37° C. in a humidified 95% air/5% ° C.2 atmosphere prior to qPCR analysis.
(§4) Cell lysis and one-step qPCR. The Cells-to-CT™ 1-Step TaqMan® Kit was used in conjunction with TaqMan primer-probe assays for the detection of Gill (FAM, Mm00494654_m1) and Gusb (VIC, Mm01197698_m1) genes (all purchased from Life Technologies). Following 24 hours cell treatment, spent medium was removed and cells were washed with PBS before the application of lysis and stop solution as per manufacturer's instructions. The qPCR reactions were run in a 384-well PCR plate using master mix prepared according to manufacturer's instructions and cell lysate samples from treatment wells. Real-time PCR amplification was detected using the Bio-Rad CFX384 Touch PCR system. Four experimental replicates (two cell replicates and two qPCR replicates) were performed for each compound concentration tested. Real-time data were analysed using the CFX Maestro software (Bio-Rad) and obtained expression values were converted to percentage Gill inhibition by normalising to the average Gill expression of mSHh-treated control samples

Test [5] addresses T5, human SMO D473H (Homo sapiens, UniProt Q99835, D473H).
T5 construct: expressed in transfected cells; host or cells: SMO knock-out mouse embryonic fibroblasts (MEF SMO-/-), BacMam transduction
In words: Human assay: Gli1 qPCR in MEF SMO-/- cells BacMam-transduced with hSMO D473H variant. As to conditions: mSHh-treated, 24 hours; for IC50: Gli1 inhibition by qPCR, read-out: Human D473H pIC50 (converted); for Human D473H % Inh: percentage Gli1 inhibition. Here is the method: Cell culture. All materials were purchased from Sigma-Aldrich, unless otherwise stated.
as §3, with “concentrations.” for “concentrations. After 1 hour incubation, cells were treated with assay medium containing mSHh prepared at 2.5× of final assay concentrations specified in the text and incubated for a further 24 hours at 37° C. in a humidified 95% air/5% ° C.2 atmosphere prior to qPCR analysis.”
as §4

The target in test [6] is T6, human SMO W535L (Homo sapiens, UniProt Q99835, W535L).
T6 construct: expressed in transfected cells; host or cells: SMO knock-out mouse embryonic fibroblasts (MEF SMO-/-), BacMam transduction
In words: Human assay: Gli1 qPCR in MEF SMO-/- cells BacMam-transduced with hSMO W535L variant. As to conditions: mSHh-treated, 24 hours; for IC50: Gli1 inhibition by qPCR, read-out: Human W535L pIC50 (converted); for Human W535L % Inh: percentage Gli1 inhibition. Here is the method: as §2, §3, §4

T3 sequence (P56726 33-793 W539L): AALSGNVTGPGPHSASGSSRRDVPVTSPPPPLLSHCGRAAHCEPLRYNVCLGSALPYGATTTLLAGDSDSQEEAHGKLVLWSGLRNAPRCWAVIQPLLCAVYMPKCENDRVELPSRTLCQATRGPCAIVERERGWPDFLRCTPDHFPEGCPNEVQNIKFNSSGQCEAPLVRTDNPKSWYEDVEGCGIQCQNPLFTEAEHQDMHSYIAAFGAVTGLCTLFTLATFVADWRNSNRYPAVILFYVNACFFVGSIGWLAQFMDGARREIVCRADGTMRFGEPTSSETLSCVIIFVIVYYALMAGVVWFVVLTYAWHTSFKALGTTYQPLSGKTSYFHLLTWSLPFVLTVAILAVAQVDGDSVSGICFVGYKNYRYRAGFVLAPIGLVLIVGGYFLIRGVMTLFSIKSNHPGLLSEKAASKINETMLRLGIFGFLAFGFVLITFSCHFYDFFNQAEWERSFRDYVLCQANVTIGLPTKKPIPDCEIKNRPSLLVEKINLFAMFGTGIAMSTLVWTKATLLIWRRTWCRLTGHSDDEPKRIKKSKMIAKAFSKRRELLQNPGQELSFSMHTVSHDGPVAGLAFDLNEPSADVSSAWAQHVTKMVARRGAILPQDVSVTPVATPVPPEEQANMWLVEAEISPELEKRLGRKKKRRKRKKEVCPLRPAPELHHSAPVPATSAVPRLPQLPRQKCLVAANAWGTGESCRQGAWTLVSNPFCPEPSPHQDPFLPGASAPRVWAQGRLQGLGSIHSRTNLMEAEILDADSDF
T6 sequence (Q99835 28-787 W535L): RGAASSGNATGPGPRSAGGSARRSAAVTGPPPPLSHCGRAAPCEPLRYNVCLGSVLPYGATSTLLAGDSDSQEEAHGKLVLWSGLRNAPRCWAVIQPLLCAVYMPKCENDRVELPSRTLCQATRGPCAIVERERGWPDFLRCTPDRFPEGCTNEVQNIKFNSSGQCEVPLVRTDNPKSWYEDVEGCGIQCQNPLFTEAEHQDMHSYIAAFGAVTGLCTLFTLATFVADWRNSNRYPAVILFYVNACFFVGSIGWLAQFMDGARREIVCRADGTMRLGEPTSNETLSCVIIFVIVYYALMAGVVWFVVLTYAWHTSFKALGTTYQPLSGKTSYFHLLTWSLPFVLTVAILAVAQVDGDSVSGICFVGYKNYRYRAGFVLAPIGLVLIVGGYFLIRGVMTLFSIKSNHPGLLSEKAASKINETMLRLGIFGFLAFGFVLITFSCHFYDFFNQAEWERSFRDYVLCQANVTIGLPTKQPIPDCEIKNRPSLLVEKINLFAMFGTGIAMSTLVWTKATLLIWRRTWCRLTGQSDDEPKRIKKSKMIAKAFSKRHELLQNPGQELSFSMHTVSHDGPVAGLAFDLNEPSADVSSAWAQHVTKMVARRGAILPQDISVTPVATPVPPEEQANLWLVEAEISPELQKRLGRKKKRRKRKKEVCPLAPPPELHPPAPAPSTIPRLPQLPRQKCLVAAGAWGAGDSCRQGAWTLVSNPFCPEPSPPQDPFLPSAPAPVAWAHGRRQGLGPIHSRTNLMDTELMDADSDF
T1 sequence (P56726 33-793): as the sequence (P56726 33-793 W539L) above, with L507W counted along it
T2 sequence (P56726 33-793 D477H): as the sequence (P56726 33-793 W539L) above, with D445H, L507W counted along it
T5 sequence (Q99835 28-787 D473H): as the sequence (Q99835 28-787 W535L) above, with D446H, L508W counted along it
T4 sequence (Q99835 28-787): as the sequence (Q99835 28-787 W535L) above, with L508W counted along it

Turning to `O=C(Nc1ccc(-c2nc(C3CC3)n[nH]2)cc1)c1cccc(CN2CCS(=O)(=O)CC2)c1` [Example 3-3, N-[4-(3-Cyclopropyl-1H-1,2,4-triazol-5-yl)phenyl]-3-[(1,1-dioxo-1,4-thiazinan-4-yl)methyl]benzamide], in test [1], the IC50 was 15.8 nM and the “Mouse WT % Inh” value amounted to 96.6%. In addition, in test [2], the IC50 was 158 nM and the “Mouse D473H % Inh” value is on record as 89.9%. In addition, in test [3], the IC50 was 158 nM and the “Mouse W535L % Inh” value stood at 61.9%. Further, in test [4], the IC50 was 31.6 nM and the “Human WT % Inh” value worked out at 85.9%. Moreover, in test [5], the IC50 is 1260 nM and the “Human D473H % Inh” value is given as 77.2%. Also, in test [6], the IC50 is 100 nM and the “Human W535L % Inh” value stood at 88.4%.

For `O=C(Nc1ccc(-c2nc(C3CCCC3)n[nH]2)cc1)c1cccc(CN2CCS(=O)(=O)CC2)c1` [Example 3-5, N-[4-(3-Cyclopentyl-1H-1,2,4-triazol-5-yl)phenyl]-3-[(1,1-dioxo-1,4-thiazinan-4-yl)methyl]benzamide], in test [1], the IC50 was 10 nM and the “Mouse WT % Inh” value was 96.6%. Besides, in test [2], the IC50 was 50.1 nM and the “Mouse D473H % Inh” value was determined as 96.7%. For the same compound, in test [3], the IC50 was 15.8 nM and the “Mouse W535L % Inh” value is 42.2%. In test [4], the IC50 was 2 nM and the “Human WT % Inh” value amounted to 83.4%. In test [5], the IC50 was 251 nM and the “Human D473H % Inh” value came out at 88.3%. Moreover, in test [6], the IC50 is 2.51 nM and the “Human W535L % Inh” value was 75.4%.

Consider `O=C(Nc1ccc(-c2nc(Cc3ccc(Br)cc3)n[nH]2)cc1)c1cccc(CN2CCS(=O)(=O)CC2)c1` [Example 3-24, N-[4-[3-[(4-bromophenyl)methy]-1H-1,2,4-triazol-5-yl]phenyl]-3-[(1,1-dioxo-1,4-thiazinan-4-yl)methyl]benzamide], for which, in test [1], the IC50 is 3.98 nM and the “Mouse WT % Inh” value stood at 98.8%. Moreover, in test [2], the IC50 was 50.1 nM and the “Mouse D473H % Inh” value is 98.5%. For the same compound, in test [3], the IC50 was 39.8 nM and the “Mouse W535L % Inh” value stood at 72.5%. For the same compound, in test [4], the IC50 was 6.31 nM and the “Human WT % Inh” value came out at 94%. In test [5], the IC50 was 25.1 nM and the “Human D473H % Inh” value was determined as 104%. In addition, in test [6], the IC50 was 25.1 nM and the “Human W535L % Inh” value turned out to be 98.5%.

For `Cc1oc(-c2ccc(NC(=O)c3cccc(CN4CCS(=O)(=O)CC4)c3)cc2)nc1C1CC1` [Example 4-2, N-[4-(4-Cyclopropyl-5-methyl-1,3-oxazol-2-yl)phenyl]-3-[(1,1-dioxo-1,4-thiazinan-4-yl)methyl]benzamide], in test [1], the IC50 was 0.631 nM and the “Mouse WT % Inh” value was determined as 97.5%. In test [2], the IC50 is 2.51 nM and the “Mouse D473H % Inh” value was 98.4%. Also, in test [3], the IC50 is 15.8 nM and the “Mouse W535L % Inh” value is 75.3%. Also, in test [4], the IC50 was 0.501 nM and the “Human WT % Inh” value is 97.8%. For the same compound, in test [5], the IC50 was 31.6 nM and the “Human D473H % Inh” value is given as 104.2%. Besides, in test [6], the IC50 is 25.1 nM and the “Human W535L % Inh” value stood at 104.6%.

Turning to `Cc1oc(-c2ccc(NC(=O)c3ccc(F)c(CN4CCS(=O)(=O)CC4)c3)cc2)nc1C1CC1` [Example 4-3, N-[4-(4-Cyclopropyl-5-methyl-1,3-oxazol-2-yl)phenyl]-3-[(1,1-dioxo-1,4-thiazinan-4-yl)methyl]-4-fluorobenzamide], in test [1], the IC50 was 0.2 nM and the “Mouse WT % Inh” value came to 97.1%. Moreover, in test [2], the IC50 was 2 nM and the “Mouse D473H % Inh” value is 97.4%. Besides, in test [3], the IC50 is 10 nM and the “Mouse W535L % Inh” value was 71.9%. Further, in test [4], the IC50 was 0.316 nM and the “Human WT % Inh” value amounted to 93.6%. Moreover, in test [5], the IC50 is 25.1 nM and the “Human D473H % Inh” value turned out to be 103.2%. Moreover, in test [6], the IC50 is 12.6 nM and the “Human W535L % Inh” value is given as 95.6%.

Regarding `CC(C)c1noc(-c2ccc(NC(=O)c3cccc(CN4CCS(=O)(=O)CC4)c3)cc2)n1` [Example 4-10, 3-[(1,1-Dioxo-1,4-thiazinan-4-yl)methyl]-N-[4-(3-propan-2-yl-1,2,4-oxadiazol-5-yl)phenyl]benzamide], in test [1], the IC50 was 6.31 nM and the “Mouse WT % Inh” value turned out to be 97.8%. In test [2], the IC50 is 12.6 nM and the “Mouse D473H % Inh” value was found to be 98.1%. Further, in test [3], the IC50 is 63.1 nM and the “Mouse W535L % Inh” value was 54.8%. Moreover, in test [4], the IC50 is 5.01 nM and the “Human WT % Inh” value worked out at 88.4%. In addition, in test [5], the IC50 is 50.1 nM and the “Human D473H % Inh” value was 100.2%. Also, in test [6], the IC50 was 12.6 nM and the “Human W535L % Inh” value is 77.8%.

As to `O=C(Nc1ccc(-c2noc(Cc3ccc(F)cc3)n2)cc1)c1cccc(CN2CCS(=O)(=O)CC2)c1` [Example 4-17, 3-[(1,1-Dioxo-1,4-thiazinan-4-yl)methyl]-N-[4-[5-[(4-fluorophenyl)methyl]-1,2,4-oxadiazol-3-yl]phenyl]benzamide], in test [1], the IC50 is 2 nM and the “Mouse WT % Inh” value came out at 97.2%. For the same compound, in test [2], the IC50 was 7.94 nM and the “Mouse D473H % Inh” value is 97.4%. Further, in test [3], the IC50 was 6.31 nM and the “Mouse W535L % Inh” value was found to be 68.6%. Further, in test [4], the IC50 is 0.794 nM and the “Human WT % Inh” value is on record as 99.3%. Besides, in test [5], the IC50 was 39.8 nM and the “Human D473H % Inh” value turned out to be 114.2%. For the same compound, in test [6], the IC50 is 20 nM and the “Human W535L % Inh” value stood at 102.7%.

In the case of `O=C(Nc1ccc(-c2cc(C3CC3)n[nH]2)cc1)c1cccc(CN2CCS(=O)(=O)CC2)c1` [Example 4-19, N-[4-(5-Cyclopropyl-1H-pyrazol-3-yl)phenyl]-3-[(1,1-dioxo-1,4-thiazinan-4-yl)methyl]benzamide], in test [1], the IC50 is 5.01 nM and the “Mouse WT % Inh” value turned out to be 96.8%. In addition, in test [2], the IC50 was 15.8 nM and the “Mouse D473H % Inh” value came to 97.7%. Also, in test [3], the IC50 was 10 nM and the “Mouse W535L % Inh” value came to 59.5%. For the same compound, in test [4], the IC50 was 3.16 nM and the “Human WT % Inh” value amounted to 95.4%. Further, in test [5], the IC50 is 100 nM and the “Human D473H % Inh” value was found to be 107.1%. Besides, in test [6], the IC50 is 12.6 nM and the “Human W535L % Inh” value was 86.3%.

For the origin of these results see patent publication US20250136559A1, “SMO MODULATOR COMPOUNDS” (OMASS THERAPEUTICS LIMITED, priority 2022, published 2025).
